Data on one compound can be found in patent US6420563B1, “Small molecule modulators of G protein-coupled receptor six” (Arena Pharmaceuticals, Inc., priority 1998, dated 2002).

“And” between values parts separate entries of the source, which are not always exact repeats. Identical values can stand only once. Like-named read-outs stand apart in the source and are kept apart here.

The nature of data set [1]: Food intake in non-food deprived rats, oral gavage. The class given is in vivo, rat. On the procedure: In a second assay, rats were treated with ARE112 by oral gavage but were not food deprived. Data evidence an even greater decrease in food intake, such that at 18 hours post administration of the compound, the vehicle rats had consumed about 15 grams of food while the injected rats (at all doses) ate 5 grams or less; about a three fold decrease in food consumption when treated with compound ARE112. (See, FIG. 9B).

Data set [2] in a line: Startle reflex in non-food deprived rats, oral administration. The class given is in vivo, rat. The following applies: […] prior to testing, 12 db pre-pulse then 120 db pulse. On the procedure: As further evidence of this mild sedative activity, animals were measured to determine their startle reflexes. In this assay, ARE112 was orally administered in non-food deprived rats 4.5 hours prior to testing. Animals were subjected to a pre-pulse of 12 db followed by a 120 db pulse and subsequently measured for the height in which the animals jumped.

Data set [3] is described as follows: Food/water intake and body weight in 24-hour food deprived rats, oral gavage (PO). Format: in vivo, rat. The essentials: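 Rats food-deprived 24 h, then dosed by oral gavage (6.75–54 mg/kg, or 100–200 μmol/kg for analogs). Food intake tracked over hours post-dose (2.5 h up to 8 h) along with body weight gain, compared with vehicle-treated rats.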
A short description of data set [4]: Locomotor activity cages (motor function). Format: in vivo, rat. The following applies: IP. On the procedure:
The effect of ARE112 on motor function was also examined. Motor function was assessed by using automated locomotor activity cages. Animals were placed in a standard rodent cage surrounded by photocell, which allowed for automated recording of motor activity. Animals were under no motivational constraints and were free to move around the cage.
Male Sprague-Dawley rats (n=4-9 per dose) were administered ARE112 (IP) prior to placement into in locomotor activity cages.

Data set [5] addresses T1, GPR6 (Homo sapiens, UniProt P46095).
T1 construct: expressed in transfected cells; 293 cells are used elsewhere
Briefly: membrane-based cyclic AMP confirmation assay (Example 4C). The class given is biochemical. The procedure, abridged: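 Membranes from stably transfected cells (0.60 mg/ml protein, 30 μg/well) in 20 mM HEPES pH 7.4, 100 mM NaCl, 10 mM MgCl2 were incubated 30 min at room temperature with compound at 12 μM final. cAMP then measured by Flash Plate adenylyl cyclase detection after 2-20 h, scintillation counting.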

Data set [6] can be described thus: Basal food/water intake and body weight in non-food deprived rats, IP administration. Format: in vivo, rat. The following applies: for food consumed over a period of 4 hrs: dark cycle, vehicle 9 g. On the procedure: In this test, animals were not deprived of food but were instead observed for normal activity.
Animals were administered ARE112 at 0, 6.75, 13.5, 27 and 54 mg/kg, IP 30 min prior to the beginning of their dark cycle (i.e. 6:30 pm) and were then exposed to standard rat chow pellets (i.e. 30 min after compound administration) and observed for a period of 15.5 hr post administration. […] For example, the vehicle treated animals consumed 9 g of food over a period of 4 hrs, whereas animals treated with dose of 13.5 mg/kg and 54 mg/kg consumed less than half this amount over this same period (4 and 2 g of food, respectively). […] (See, FIGS. 6B and 6C).

The mark [7] stands for this setting: 100 μmol/kg PO, second assay, Table D, vehicle 19.25.

One may read the IC50 as the concentration that gives 50% inhibition.

T1 sequence (P46095 whole entry): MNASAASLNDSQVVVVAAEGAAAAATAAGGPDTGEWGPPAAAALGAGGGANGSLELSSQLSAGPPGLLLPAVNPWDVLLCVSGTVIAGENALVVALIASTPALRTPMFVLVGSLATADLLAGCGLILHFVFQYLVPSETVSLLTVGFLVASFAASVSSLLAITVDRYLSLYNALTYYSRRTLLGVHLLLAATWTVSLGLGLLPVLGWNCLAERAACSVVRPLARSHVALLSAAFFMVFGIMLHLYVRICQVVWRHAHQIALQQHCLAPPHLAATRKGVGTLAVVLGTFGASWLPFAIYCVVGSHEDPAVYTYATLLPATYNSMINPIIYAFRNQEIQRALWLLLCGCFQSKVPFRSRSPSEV

Consider `O=C(N=C1SSC2=NCCN21)c1cccs1` [ARE112, N-(5,6-dihydro-3H-imidazo[2,1-c]-1,2,4-dithiazol-3-ylidene)-thiophen-2-carboxamide], for which, in data set [1] (6.75 to 54 mg/kg), the oral activity result is “orally active”. Further, the “decrease in food consumption” value in data set [1] (18 hours post administration) is reported as “three”. The food consumed is given as no more than 5 grams in data set [1] (all doses, 18 hours post administration, vehicle about 15 grams); “about 6 grams” in data set [3] (27 mg/kg oral gavage, 2.5 hours, vehicle about 6 grams); “about 8 grams” in data set [3] (27 mg/kg oral gavage, 8 hours post-administration, vehicle about 14 grams); roughly 4 grams in data set [3] (54 mg/kg oral gavage, 2.5 hours, vehicle about 6 grams); “about 6 grams” in data set [3] (54 mg/kg oral gavage, 8 hours post-administration, vehicle about 14 grams). For the same compound, the “startle reflex (height jumped)” value in data set [2] (13.5 mg/kg oral) and in data set [2] (54 mg/kg oral) was “did not jump as high” throughout. The “Cumulative Food Intake (g) (8 hr post administration)” value in data set [3] (100 μmol/kg PO, second assay, Table D, vehicle 14.0) is on record as 8.1 g. Besides, the “Body Weight Gain (g) (6 hr post administration)” value in data set [3] (setting [7]) was 6.25 g. In data set [3] (setting [7]), the “Cumulative Water Intake (g) (6 hr post administration)” value is listed as 10.5 g. In addition, the “body weight gain (FIG. 10C)” value in data set [3] (100 μmol/kg oral, vehicle about 19.5 grams) came out at 6 grams. Besides, the locomotor activity result in data set [4] (1.5 hour immediately after injection) is “does not affect locomotor activity”; in data set [4] (16 hours post-injection), “decreases locomotor activity”. Moreover, the IC50 in data set [5] (assay number 1-3 for compound ARE112, read-out: IC50 Values (nM) cAMP) is 88.3 nM and 77.4 nM and 99 nM; in data set [5] (mean +/- standard deviation (number of assays in brackets), read-out: IC50 Values Cyclic AMP Assay Example 4C), 100 nM. In addition, the “food consumed over a period of 4 hrs” value is 4 g in data set [6] (13.5 mg/kg IP) and 2 g in data set [6] (54 mg/kg IP). For the same compound, the body weight gain result in data set [6] (IP, non-deprived rats) is reported as “decrease”. Besides, the water intake entry in data set [6] (IP, non-deprived rats) is on record as “decrease”.
